Laboratory results taken from publication PMC7824033, “Flavones, Flavonols, and Glycosylated Derivatives—Impact on Candida albicans Growth and Virulence, Expression of CDR1 and ERG11, Cytotoxicity” (Pharmaceuticals, 2020).
In brackets after ≈: the same amount, converted by molar mass. Where two headings read alike, the source gives them in different places.

Legend:
[1] = system: C. albicans 10/15; assay: Microdilution assay, MIC and MFC; format: cell-based; conditions: Candida albicans, C. albicans 10/15, mean ± SD of three replicates; for MFC: read-out: MFC; for MIC: read-out: MIC
Source text: (§1) C. albicans was isolated from oral cavities of patients at ENT Clinic, Clinical Hospital Centre Zvezdara, Belgrade, Serbia after obtaining informed written consent and identified by using CHROMagar plates (Biomerieux, Craponne, France). Strains were maintained on Sabouraud Dextrose Agar (Merck, Darmstadt, Germany) and are deposited at the Mycological Laboratory, Department of Plant Physiology, Institute for Biological Research “Siniša Stanković”, National Institute of Republic of Serbia, University of Belgrade. The collection of samples was approved by the Ethical Committee (Office for Human Research Protection, Zvezdara University Medical Center, Belgrade, Serbia, document issued 26 October 2016).
(§2) Microdilution assay with some modification was used for determination of minimum inhibitory (MIC) and minimum fungicidal concentrations (MFC). Yeast cultures were adjusted to 1.0 × 10^5 CFU/per well with sterile PBS (Phosphate buffered saline, pH 7.4). The 96-well microtiter plates with serially diluted flavonoids (concentration range 0.3–75 µg/mL) in liquid broth were incubated at 37 °C for 24 h. After incubation, MIC and MFC were determined. The lowest concentrations that were not inducing microscopically observed growth were considered as MIC. For microscopic determination of growth, we used inverted microscope Nikon Eclipse TS2 (Amsterdam, Netherland) and examined the fungal growth in the wells of 96-well microtiter plates compared to the control (untreated yeast cells). MFC values were determined as concentrations without visible growth after serial sub-cultivation of 10 µL of samples at 37 °C for 24 h. Ketoconazole and amphotericin B (SigmaAldrich, Darmstadt, Germany) were used as an antifungal control. The tested flavonoids were obtained from Extrasynthese, Rhone, France.

[2] = system: C. albicans 13/15; assay: Microdilution assay, MIC and MFC; format: cell-based; conditions: Candida albicans, C. albicans 13/15, mean ± SD of three replicates; for MFC: read-out: MFC; for MIC: read-out: MIC
Source text: as §1, §2

[3] = system: C. albicans 475/15; assay: Microdilution assay, MIC and MFC; format: cell-based; conditions: Candida albicans, C. albicans 475/15, mean ± SD of three replicates; for MFC: read-out: MFC; for MIC: read-out: MIC
Source text: as §1, §2

[4] = system: C. albicans 527/14; assay: Microdilution assay, MIC and MFC; format: cell-based; conditions: Candida albicans, C. albicans 527/14, mean ± SD of three replicates; for MFC: read-out: MFC; for MIC: read-out: MIC
Source text: as §1, §2

[5] = system: Candida albicans; assay: Microdilution assay, MIC (strain not named); format: cell-based; conditions: C. albicans, this study, strain not given, read-out: minimum inhibitory concentration (MIC)
Source text: as §1, §2

[6] = system: C. albicans 475/15 hyphal growth; assay: Anti-hyphal forming activity; format: cell-based, Candida albicans; conditions: MIC, 4 h, YPD + 10% FBS
Procedure: C. albicans 475/15 cells were incubated with MIC of tested compounds in YPD + 10% FBS, at 37 °C, for 4 h. Cells were examined under microscope (Nikon Eclipse TS2, Amsterdam, Netherland) and number of cells, growing in the yeast or hyphal and germ tube formations, was determined. Assay was performed in triplicate and percentage of hyphae was determined.

[7] = in vitro; conditions: pig
Procedure: Preparation of PLP2 cell line was performed with freshly harvested porcine liver supplied from a local slaughter house. Tissues from the liver were washed in Hank’s balanced salt solution comprising 100 U/mL penicillin and 100 μg/mL streptomycin and split into 1 × 1 mm^3 explants. Some of the prepared explants were set in 25 cm^2 tissue flasks in Dulbecco’s modified Eagle’s medium (DMEM) with 10% fetal bovine serum (FBS), 2 mM nonessential amino acids, 100 U/mL penicillin, and […] streptomycin, and incubation was conducted at 37 °C with 5% CO2 in a humidified atmosphere. The fresh medium was added every 2 days. Cultivation of the cells was further conducted with direct observation by the phase contrast microscope every 2–3 days. Before confluence was achieved, cells were subcultured and seeded in 96-well plates at a density of 1.0 × 10^4 cells per well and cultivated in DMEM supplemented with 10% FBS, 100 U/mL penicillin, and 100 μg/mL streptomycin. Previously described Sulforhodamine B assay was used for the determination of cytotoxicity. The obtained results were defined as GI50 values corresponding to the compound concentration that inhibits 50% of the net cell growth. Ellipticine was used as a positive control.

[8] = system: C. albicans; conditions: cited from earlier work
[9] = system: C. albicans biofilm; conditions: cited from earlier work
[10] = system: non-tumor colon cell (IEC-18); set-up: method as in PMID 25359775; conditions: up to 150 μM; cited from earlier work
[11] = system: S. aureus efflux; set-up: method as in PMID 25961825; conditions: S. aureus; cited from earlier work
[12] = system: ALS1, ALS3, HWP1, SUN41; conditions: ref 18; cited from earlier work

Structure (SMILES) | MFC [1] [µg/mL] | MIC [1] [µg/mL] | MFC [2] [µg/mL] | MIC [2] [µg/mL] | MFC [3] [µg/mL] | MIC [3] [µg/mL] | MFC [4] [µg/mL] | MIC [4] [µg/mL] | MIC [5] [µg/mL] | reduction of hyphal growth (words) [6] | GI50 [7] [µg/mL] | other results
O=c1c(O[C@@H]2O[C@H](CO)[C@@H](O)[C@H](O)[C@H]2O)c(-c2ccc(O)c(O)c2)oc2cc(O)cc(O)c12 [Isoquercitrin, isoquercitrin] | 75 ± 2 (≈ 162 µM) | 37.5 ± 2 (≈ 80.8 µM) | 75 ± 2 (≈ 162 µM) | 37.5 ± 2 (≈ 80.8 µM) | 75 ± 2 (≈ 162 µM) | 37.5 ± 1 (≈ 80.8 µM) | 75 ± 2 (≈ 162 µM) | 37.5 ± 1 (≈ 80.8 µM) | 37.5 (≈ 80.8 µM) | efficient in reduction of hyphal growth | > 400 | reduction of hyphal growth (words) ([6]; listed as isoquercitrin): reduced; MIC ([8]; C. albicans ATCC 90028): 2.5 µg/mL (≈ 5.38 µM); concentration with antibiofilm potential ([9]; ref 19): 200 µg/mL; cytotoxic effects [10]: did not show cytotoxic effects
O=c1c(O)c(-c2ccc(O)c(O)c2)oc2cc(O)cc(O)c12 [Quercetin, quercetin] | 150 ± 20 (≈ 496 µM) | 75 ± 3 (≈ 248 µM) | 150 ± 20 (≈ 496 µM) | 75 ± 10 (≈ 248 µM) | 150 ± 10 (≈ 496 µM) | 75 ± 2 (≈ 248 µM) | 150 ± 10 (≈ 496 µM) | 75 ± 2 (≈ 248 µM) | 75 (≈ 248 µM) | only slight inhibition | > 400 | MIC ([8]; C. albicans ATCC 10231, ref 16): 8 µg/mL (≈ 26.5 µM); MIC ([8]; C. albicans ATCC 10231, ref 17): 100 µg/mL (≈ 331 µM); MIC ([8]; clinical isolates and C. albicans 10231): > 83 µg/mL; MIC ([8]; clinical isolates and reference strains ATCC 10231 and SC5314): 128 to 512 µg/mL; activity against preformed 24-h-old biofilms ([9]; 625 µg/mL, C. albicans ATCC 90028): inactive; SMIC (sessile cells MIC) ([9]; C. albicans ATCC 10231, SC 5314 and clinical isolates): ≥ 1024 µg/mL; concentration that prevented biofilm establishment ([9]; C. albicans NBC099): 200 µg/mL; SMIC (sessile cells MIC) ([9]; oral and reference isolates SC5314 and 3153A): > 200 µg/mL; IC50, efflux inhibition [11]: 75 µg/mL (≈ 248 µM); ALS1, ALS3, HWP1 and SUN41 expression levels [12]: reduced
